Results taken from patent US5158963A, “1-4-dihydropyridine derivative, process for preparing the same and pharmaceutical composition containing the same” (Kaken Pharmaceutical Co., Ltd., priority 1989, dated 1992).
Entries after “also recorded” stand apart in the source; their conditions may differ.

Tests used:
blood pressure = test: Activity for blood pressure in rats; type: in vivo, rat (Wister male rats); conditions: oral; for Blood pressure: 100 mg/kg
Experimental: In each group 4 Wister male rats weighing 200 to 300 g (10 to 15 weeks) were employed. The day before a test, rats were anesthetized with eter, and a polyethylene tube was inserted into aorta abdominalis of a rat. The other end of the polyethylene tube was led out of the rat's body. The led polyethylene tube was connected with a pressure transducer (RM-85, made by Yamamoto Kohden). Blood pressure was measured under a condition of no restriction.

[1] = test system: decapitation induced hypoxia; test: Activity against decapitation induced hypoxia in mice; type: in vivo, mouse (Slc:ddy male mice); conditions: Mus musculus, 1 h, oral, 60 min before decapitation, duration of gasping vs control, read-out: Inhibition rate
Experimental: In each group five Slc:ddy male mice weighing 20 to 22 g (4 weeks) were employed. Sixty minutes after oral administration of a test compound, mice were decapitated with a guillotine. After the decapitation, duration of gasping of head was measured with a timer (CT-916 Type, made by HATTORI SEIKO CO., LTD.) gearing into the guillotine.
Each of test compound was suspended in a 0.5% solution of methyl cellulose and administered. Inhibition rate was calculated by comparing with a 0.5% aqueous solution of methyl cellulose as control. That is, the inhibition rate was calculated by the following formula. [formula]

[2] = test system: tonic extensive convulsion (maximal electroshock-induced seizures); test: Activity against maximal electroshock-induced seizures in mice; type: in vivo, mouse (Slc:ddy male mice); conditions: oral; for inhibitory activity against tonic extensive convulsion (share of cases): 200 mg/kg
Source text: In each group six Slc: ddy male mice weighing 26 to 31 g (5 weeks) were employed. Sixty minutes after oral administration of a test compound, corneal electrodes which were wet by physiological saline were contacted with both eyes of a mouse. Then, appearance of tonic extensive convulsion (TE) caused by electrifying under a stimulation condition of 50 mA, 1000 V and 0.2 sec by means of the apparatus of Woodburg & Davenport (made by Kyoto Keisokuki) was judged as indication.
Each of diphenylhydantoin, the compounds Nos. 2, 4, 5, 6, 7, 50, 51 and 52 of the present invention (refer Table 1, hereinafter the same) and nimodipine was suspended in a 0.5% solution of methyl cellulose to subject the test. Flunarizine was suspended in a 5% solution of gum arabic to subject the test.

[3] = test system: immobility time of forced swimming test; test: Activity against immobility time of forced swimming test in mice; type: in vivo, mouse (Slc:ICR male mice); conditions: oral; for effect on the immobility time (in words): 200 mg/kg
Experimental: In each group 6 Slc:ICR male mice weighing 25 to 32 g (5 weeks) were bred at the room temperature of 22° to 24° C. under an environment of 60% humidity for 1 week, and then the bred mice were subjected to the following test. The test was carried out by monitering action to voluntarily escape with TV camera when a mouse was put into a cylinder of which inner diameter was 11 cm wherein 17 cm of water being the temperature 25° C. as added. As indication immobility time for 6 minutes was measured. In the test mice were employed which were compulsorily swun for 6 minutes in once per day for continuous 3 day. The investigation for immobility time was carried out by measuring immobility time for 6 minutes 1 hour after oral administration of a test compound. Each of test compound was suspended in a 0.5% solution of methyl cellulose used as a control group. Significant difference is shown with the significance level (* : p<0.05) obtained by comparing data of control group by LSD method.

Row | SMILES | Blood pressure (blood pressure; after 15 min.) [mmHg] | Blood pressure (blood pressure; after 30 min.) [mmHg] | Blood pressure (blood pressure; after 60 min.) [mmHg] | Blood pressure (blood pressure; after 120 min.) [mmHg] | activity for decreasing blood pressure (in words) (blood pressure; normal rats) | inhibition in vivo at 10 mg/kg [1] [%] | inhibition in vivo at 30 mg/kg [1] [%] | inhibitory activity against tonic extensive convulsion (share of cases) [2] | effect on the immobility time (in words) [3] | effect on immobility time of forced swimming test (in words) [3] | inhibition in vivo at 100 mg/kg [1] [%] | effect on maximal electroshock-induced seizures (in words) [2]
1 | COC(=O)C1=C(C)NC(C)=C(C(=O)OCCN(C)Cc2ccccc2)C1c1cccc([N+](=O)[O-])c1 (stereo not drawn) [Nicardipine, 2-(N-benzyl-N-methylamino)ethyl,methyl 2,6-dimethyl-4-(3-nitrophenyl)-1,4-dihydropyridine-3,5-dicarboxylate hydro chloride, reference compound] | 100.0 | 67.2 | 69.2 | 67.2 | strong antihypertensive activity; also recorded: remarkable activity for decreasing blood pressure | 4.2 | 6.8 | – | – | – | – | –
2 | C#Cc1cccc(C2C(C(=O)OC(C)C)=C(C)NC(C)=C2C(=O)OC(C)C)c1 [Compound No. 6, 3,5-Diisopropoxycarbonyl-1,4-dihydro-2,6-dimethyl-4-(3-ethynylphenyl)pyridine] | – | – | – | – | – | – | – | a third | showed the effect on the immobility time | immobility time of forced swimming test reduced | – | –
3 | C#Cc1cccc(C2C(C(=O)OCC)=C(C)NC(C)=C2C(=O)OCCC)c1 (stereo not drawn) [Compound No. 5, 5-Ethoxycarbonyl-3-n-propoxycarbonyl-1,4-dihydro-2,6-dimethyl-4-(3-ethynylphenyl)pyridine] | – | – | – | – | – | – | – | two thirds | showed the effect on the immobility time | immobility time of forced swimming test reduced | – | –
4 | C#Cc1cccc(C2C(C(=O)OC)=C(C)NC(C)=C2C(=O)OCC=C(C)C)c1 (stereo not drawn) [Compound No. 52, 5-Methoxycarbonyl-3-(3-methyl-2-butenyloxycarbonyl)-1,4-dihydro-2,6-dimethyl-4-(3-ethynylphenyl)pyridine] | – | – | – | – | – | – | – | two thirds | showed the effect on the immobility time | immobility time of forced swimming test reduced | 26.4 | –
5 | C#Cc1cccc(C2C(C(=O)OC)=C(C)NC(C)=C2C(=O)OC(C)C)c1 (stereo not drawn) [Compound No. 7, 5-Isopropoxycarbonyl-3-methoxycarbonyl-1,4-dihydro-2,6-dimethyl-4-(3-ethynylphenyl)pyridine] | – | – | – | – | – | – | – | a third | showed the effect on the immobility time | immobility time of forced swimming test reduced | – | –
6 | C#Cc1cccc(C2C(C(=O)OCC)=C(C)NC(C)=C2C(=O)OCC=CC)c1 (stereo not drawn) [Compound No. 51, 5-Ethoxycarbonyl-3-crotyloxycarbonyl-1,4-dihydro-2,6-dimethyl-4-(3-ethynylphenyl)pyridine] | – | – | – | – | – | – | 25.7 | all cases | showed the effect on the immobility time | immobility time of forced swimming test reduced | 28.3 | –
7 | COCCOC(=O)C1=C(C)NC(C)=C(C(=O)OC(C)C)C1c1cccc([N+](=O)[O-])c1 (stereo not drawn) [Nimodipine, isopropyl, 2-methoxyethyl 2,6-dimethyl-4-(3-nitrophenyl)-1,4-dihydropyridine-3,5-dicarboxylate, reference compound] | – | – | – | – | – | 2.1 | 9.3 | No inhibitory activity | – | ineffective; also recorded: no effect | – | ineffective
